# From patent US20230372350A1, “ASTROCYTIC TRPA1 CHANNEL INHIBITION AS A NOVEL NEUROPROTECTIVE THERAPEUTIC TARGET IN THE PRODROMAL PHASES OF ALZHEIMER'S DISEASE” (priority 2020, published 2023)
# Experiments:
# [1] = test system: hippocampal astrocytes of APP/PS1-21 and WT mice; assay: Chronic intraperitoneal treatment: astrocyte calcium imaging (Fluo-4) in hippocampal slices; assay type: in vivo, mouse
# Experimental: The used model is a transgenic murine model obtained on a C57BL/6J genetic background which co-expresses the mutated human form of the amyloid precursor protein (mutated APP KM670/671NL) and of presenilin 1 (mutated PS1 L166P) under the control of the neural promoter Thy1. The presence of these two mutations allows increased production of the Aβ peptide from the 14th postnatal day. This leads to cerebral amyloidosis with the appearance of the first senile plaques around 8 postnatal weeks. This amyloid pathology is accompanied by inflammatory gliosis (microgliosis and astrogliosis detectable from 4 months), dendritic spine dystrophy and tau hyperphosphorylation (around 8 months). Cognitive behavioral disorders, and in particular of learning and spatial memory, are developed in around 6 to 8 months. This model was set-up and described by Rebecca Radde in 2006 (Radde et al., EMBO reports, 2006) and is widely used by the scientific community. This model is available in the animal facility of the Institut des Neurosciences de Grenoble and has been bred by the inventors since 2014.
# This solution is then diluted to 1 μg/μl in an isotonic solution containing 1% Pluronic F-127 and 0.9% NaCl. The animals are injected daily intraperitoneally at a dose of 5 mg/kg of body mass. Sterile 0.5 ml BD MicroFine syringes with no dead volume, equipped with a 30G (0.3 mm) needle are used for the injections.
# The carrier (10% DMSO, 1% Pluronic F-127, 0.9% NaCl) is used as a control and is also injected daily, according to the same procedure, into the WT and APP/PS1 control animals (carrier groups).
# The injection is started from the 14th postnatal day (appearance of the expression of the Thy1gene promoter in the hippocampus, triggering the overexpression of Aβ in the APP/PS1-21 murine model)
# Coronal sections of the hippocampus (thickness 300 μm) were prepared from APP/PS1-21 transgenic mice (1 month and 3 months old) or from WT mice from the same litter. The mice were sacrificed by decerebration and decapitation. The brain was quickly removed and sectioned in ice-cold ACSF containing (in mM) : 2.5 KCl, 7 MgCl2, 0.5 CaCl2, 1.2 NaHPO4, 25 NaHCO3, 11D-glucose and 234 sucrose bubbled with 95% of O2 and 5% of CO2 with a VT1200S vibratome (Leica, Germany). The sections containing the hippocampus were placed in ACSF containing (in mM) : 126 NaCl, 2.5 KCl, 1.2 MgCl2, 2.5 CaCl2, 1.2 NaH2PO4 bubbled with 95% of O2 and 5% of CO2 and supplemented with 1 mM of sodium pyruvate at room temperature for a recovery period.
# 300 μm coronal sections were transferred to a chamber allowing constant perfusion with ACSF at room temperature, bubbling with 95% of O2 and 5% of CO2 on the upright microscope tray (Eclipse E600 FN, Nikon, France) equipped with a 60× (NA 1.0) water immersion objective and infrared interference contrast optical systems with a CCD camera (Optronis VX45, Germany). 8-11 MSΩ glass pipettes (Harvard Apparatus) were filled with an intracellular solution containing (in mM): 105 K-gluconate, 30 KCl, 10 phosphocreatine, 10 HEPES, 4 ATP-Mg, 0.3 GTP-Tris, 0.2 Fluo-4-pentapotassium salt (Life Technologies), adjusted to pH 7.2 with KOH. The signals were amplified by Axopatch 200B, sampled by a Digidata 1440A interface and recorded by the pClamp8 software (Molecular Devices, USA). Astrocytes were identified on the basis of their morphology, their location in the stratum radiatum and a negative resting potential (between −70 and −80 mV). The membrane potential was maintained at −80 mV. The input resistance was calculated by measuring the current in response to a 10 mV pulse of 80 ms duration near the end of the voltage command.
# APP/PS1-21 and WT mice = assay: Chronic intraperitoneal treatment: Barnes maze; assay type: in vivo, mouse; details: 6-months old
# Experimental: This solution is then diluted to 1 μg/μl in an isotonic solution containing 1% Pluronic F-127 and 0.9% NaCl. The animals are injected daily intraperitoneally at a dose of 5 mg/kg of body mass. Sterile 0.5 ml BD MicroFine syringes with no dead volume, equipped with a 30G (0.3 mm) needle are used for the injections. The injection is started from the 14th postnatal day (appearance of the expression of the Thy1gene promoter in the hippocampus, triggering the overexpression of Aβ in the APP/PS1-21 murine model) The mice were placed in the center of a well-lit open platform (BioSeb, diameter 120 cm). The platform includes 20 holes (diameter 5 cm) with an escape box (target) attached below any of the holes. On the first day of training, the mice were first placed in the middle of the platform and gently guided to the target after 5 minutes of free exploration. Once the mice entered the escape box, they remained there for 1 minute before being returned to their cage. During the 3 days of the training/acquisition phase, the mice performed 3 trials per day with an interval between trials of 20 minutes. The mice had 180 seconds to find the escape box or were gently guided thereto. On day 4 (test day), the escape box was removed and the mice were allowed to freely explore the maze for 60 seconds. The time taken to reach the target (latency) and the exploration time of the target area (target hole±1) were analyzed. All data were recorded and analyzed with EthoVision XT9 (Noldus). The working memory is perhaps one of the most studied aspects of memory impairment in Alzheimer's disease. The inventors administered daily the TRPA1 channel specific inhibitor (HC030031) or the carrier intraperitoneally (5 mg/kg of body mass) from the 14th postnatal day up to 6 months in APP/PS1-21 and wild-type WT mice.
# [2] = test system: trigeminal neuropathy-like pain behaviors; details: mice, subcutaneous (100 μg/10 μl) or intragastric (300 mg/kg); Trevisan et al. 2016; cited from earlier work
# [3] = APP/PS1-21 mice, 1-month old, 5 mg/kg i.p. daily from 14th postnatal day
# [4] = APP/PS1-21 mice, 3 months, chronic treatment 5 mg/kg i.p.
# [5] = WT control mice, 1-month old, 5 mg/kg i.p. daily from 14th postnatal day
# [6] = WT mice, 3 months, chronic treatment 5 mg/kg i.p.
# [7] = APP/PS1-21 mice, 5 mg/kg i.p. daily from 14th postnatal day
# [8] = WT control mice, chronic treatment
smiles,measurement,setting,value
"CC(C)c1ccc(NC(=O)Cn2cnc3c2c(=O)n(C)c(=O)n3C)cc1 [HC030031, 2-(1,3-Dimethyl-2,6-dioxo-1,2,3,6-tetrahydro-7H-purin-7-yl)-N-(4-isopropylphenyl)acetamide]",calcium event frequency,[1]; [3],0.48±0.02 calcium event/minute
same,proportion of active microdomains,[1]; [3],56.1±3.9%
same,frequency of calcium events within microdomains,[1]; [4],0.50±0.06 event/minute
same,proportion of active microdomains,[1]; [4],49.4±6.4%
same,frequency of calcium events within the microdomains,[1]; [5],0.51±0.02 calcium event/min
same,proportion of active microdomains,[1]; [5],53.0±2.7%
same,frequency of calcium events within microdomains,[1]; [6],0.62±0.04 calcium event/minute
same,proportion of active microdomains,[1]; [6],60.2±3.8%
same,"area under the curve for latency to reach the escape box (learning phase, working memory)",APP/PS1-21 and WT mice; [7],595.9±77.2
same,first latency to the target area during the trial (reference memory),APP/PS1-21 and WT mice; [7],18.5 ± 4.2 s
same,reference memory performance,APP/PS1-21 and WT mice; [8],no impact
same,working memory performance,APP/PS1-21 and WT mice; [8],no impact
same,trigeminal neuropathy-like pain behaviors,[2],abolished
